Here are results for 6 substances from patent publication US20240287132A1, “PEPTIDE, COMPOSITION, AND GHRELIN SECRETION PROMOTING AGENT” (KYOTO UNIVERSITY, priority 2019, published 2024).

The subject of test [1] is Ghrelin-secreting cells (MGN3-1). Kind of test: Evaluation of intracellular CAMP level. Type of test: cell-based. As to conditions: MGN3-1 cells, 0.5 mM IBMX, 37° C. 30 minutes, FIG. 4. The method, then: Ghrelin-secreting cells (MGN3-1) were […] in a Krebs-Ringer-HEPES buffer containing 0.5 mM IBMX. After the mixture was incubated at 37° C. for 30 minutes, the intracellular CAMP was quantified using HitHunter CAMP Assay for Small Molecules (manufactured by DiscoveRx).

The test system of test [2] is male ddY mice. Briefly: Evaluation of mouse serum ghrelin level. As to conditions: 11 weeks old male ddY mice, 0.3 mg/kg, 1 hour after administration, FIG. 5B. Type of test: in vivo. How it is done: Mice (11 weeks old male ddY mice) were administered with a saline solution of the peptide of SEQ ID NO: 1 (0.3 mg/kg). Subsequently, 1 hour after the administration, blood was collected from the orbital vein of the mice and centrifuged at 4° C. at 1,120×g for 10 minutes. The resulting supernatant was acidified with 1 N HCl and then measured for serum ghrelin level (pg/ml) using an acylated ghrelin enzyme immunoassay kit.

Test [3] has as its system Ghrelin-secreting cells (MGN3-1). Kind of test: Ghrelin secretion activity evaluation (ghrelin in medium, ELISA). Type of test: cell-based. Particulars: MGN3-1 cells; for ghrelin secretion (ghrelin concentration in medium): peptide concentration 0.01, 0.1, or 1 mM, FIG. 2, n=4; for significance of ghrelin secretion promoting effect: peptide concentration of 1 mM or more, FIG. 2. The method, then:
(§1) Ghrelin-secreting cells (MGN3-1) were seeded at 1×10^5 cells/well onto a 96-well plate and cultured in a sodium octanoate/DMEM medium at 37° C. for 24 hours. After the cultivation, the cells were washed with DPBS. A buffer solution of each peptide was prepared and, 100 μL of the buffer solution (with a peptide concentration of 1 mg/mL or 10 mg/mL) was added to the cells. The cells were further cultured at 37° C. for 4 hours. The buffer used contained 50 μM of sodium octanoate in DMEM.
Unless otherwise stated, all tests shown below were performed using, as a control, a culture obtained in the same manner as shown above except that only the buffer was added instead of the buffer solution of the peptide.
After the cultivation, the medium sample was collected and centrifuged to give a supernatant. Subsequently, 10 μL of 1 N HCl was added to the supernatant, and the resulting sample was stored at −80° C. until it was subjected to the ghrelin concentration measurement shown below.
The concentration of ghrelin in each medium sample was measured using an ELISA kit (Ghrelin (Acylated) EIA Kit A05117 (trade name) manufactured by Bertin Pharma SAS). The results shown in FIG. 1 are values relative to the measured value of the control.
The two peptides were evaluated for their effect on ghrelin secretion by the same method as shown above (Ghrelin Secretion Activity Evaluation 1).
In general terms: ELISA stands for enzyme-linked immunosorbent assay.

The test system of test [4] is male ddY mice. Briefly: Evaluation 1 of eating behavior of mice (feed intake over 4 hours). Particulars: 11 weeks old male ddY mice, single oral dose 1 mg/kg, 4 hours after feeding, vs saline control, FIG. 5A. Type of test: in vivo. How it is done:
Mice (11 weeks old male ddY mice) were orally administered with a single dose of a saline solution of the peptide of SEQ ID NO: 1 (1 mg/kg). Subsequently, a previously weighed feed (CE-2 (trade name) manufactured by CLEA Japan, Inc.) was given to the mice, and 4 hours after the feeding, the weight of the remaining feed was measured. A control test was also carried out in which the same procedure was carried out as shown above except that a single dose of saline was orally administered instead of the peptide of SEQ ID NO: 1. The amount of feed intake (g/4 hours) was defined as the difference between the weight of the feed given to the mice and the weight of the feed remaining 4 hours after the feeding.

For test [5], the system named is Ghrelin-secreting cells (MGN3-1). Kind of test: Intracellular ghrelin level (Ghrelin Secretion Activity Evaluation 3). The test is classed as cell-based. As to conditions: MGN3-1 cells, FIG. 3A, n=4 or 5. The method, then: as §1
The peptide of SEQ ID NO: 1 was evaluated for its effect on ghrelin secretion (intracellular ghrelin level) by the same method as shown above (Ghrelin Secretion Activity Evaluation 1).

Test [6] shares this test system. Briefly: Evaluation of intracellular calcium ion level. Type of test: cell-based. As to conditions: data not shown. The method, then:
The intracellular calcium ion level was measured using Calcium Kit II-Fluo 4 (Dojindo Laboratories) and a multi-plate reader (manufactured by BMG LABTECH GmbH, Aex: 485 nm, Xem: 520 nm).
In general terms: Calcium assays in cells follow changes in intracellular calcium, usually with a dye or a luminescent sensor.

The subject of test [7] is male ddY mice. Briefly: Evaluation 2 of eating behavior of mice (feed intake over 2 hours). Particulars: 7 weeks old male ddY mice, single oral dose 1 mg/kg, 2 hours after feeding, FIG. 6, *: P<0.05 relative to the control. The test is classed as in vivo. How it is done:
Mice (7 weeks old male ddY mice acclimated for at least 1 week before use after being purchased) were orally administered with a single dose of a saline solution of each peptide (1 mg/kg). Subsequently, a previously weighed feed (CE-2 (trade name) manufactured by CLEA Japan, Inc.) was given to the mice, and 2 hours after the feeding, the weight of the remaining feed was measured. A control test was also carried out in which the same procedure was carried out as shown above except that a single dose of saline was orally administered instead of each peptide. The amount of feed intake (g/2 hours) was defined as the difference between the weight of the feed given to the mice and the weight of the feed remaining 2 hours after the feeding. Based on the results, the amount of feed intake in the control group was normalized to 100, and the amount of feed intake in each group was calculated relative to 100. The results are shown in FIG. 6 (n=7 to 18, *: P<0.05 relative to the control).

In test [8] the test system is ghrelin synthesis-related genes (Preproghrelin, GOAT, and PC3). Kind of test: Evaluation of ghrelin synthesis-related gene expression (qPCR). The test is classed as cell-based. Particulars: MGN3-1 cells, FIGS. 3B, 3C, 3D, n=4 or 5. The method, then:
The expression levels of the three, ghrelin synthesis-related genes (Preproghrelin, GOAT, and PC3) in the cells obtained after the completion of the cultivation shown above (Ghrelin Secretion Activity Evaluation 1) were measured by the method shown below. First, mRNA was extracted from the cells using RNeasy Mini Kit (manufactured by QIA-GEN) and Takara PrimeScript RT Master Mix (manufactured by Takara Bio Inc.). Subsequently, the mRNA expression level was measured through the amplification of cDNA using LightCycler 96 System (manufactured by Roche Diagnostics K.K.) and THUNDERBIRD qPCR Mix (manufactured by Toyobo Co., Ltd.). The results are shown in FIG. 3B (Preproghrelin), FIG. 3C (GOAT), and FIG. 3D (PC3) (n=4 or 5).
In general terms: In qPCR the cycle at which signal appears reflects the starting amount.

As for QAFEPIRSV [SEQ ID NO: 1], the “intracellular CAMP level” value in test [1] was “no effect”. The serum ghrelin level result in the test with male ddY mice [2] is on record as “increased”. In test [3] (data not shown), the extracellular ghrelin level result is listed as “increased”. Also, in test [3], the “ghrelin secretion (ghrelin concentration in medium)” value is recorded as “ghrelin secretion promoting effect” and the “significance of ghrelin secretion promoting effect” value is listed as “significant”. In addition, the “amount of feed intake” value in the test on male ddY mice [4] is on record as “increased”. Also, the intracellular ghrelin level entry in test [5] is listed as “tendency to reduce”. For the same substance, the “intracellular calcium ion level” value in test [6] is reported as “no effect”. Also, in the test on male ddY mice [7], the “amount of feed intake relative to control (control normalized to 100)” value is listed as “increased”. Further, the “expression levels of the ghrelin synthesis-related genes (Preproghrelin, GOAT, PC3 mRNA)” value in test [8] is listed as “not found to change”.
As for QAFE [SEQ ID NO: 3], in the test on male ddY mice [7], the “amount of feed intake relative to control (control normalized to 100)” value is reported as “significantly increased”.
Same read-out and setting: the value for TNPW [SEQ ID NO: 5] was “significantly increased”.
Turning to QGSF [SEQ ID NO: 7], the “amount of feed intake relative to control (control normalized to 100)” value in the test on male ddY mice [7] is given as “significantly increased”.
Same read-out and setting: the value for HSPR [SEQ ID NO: 6] was “significantly increased”.
As for “TNPWHSPROGSF (TNPWHSPRQGSF) [SEQ ID NO: 2]”, in test [3], the “ghrelin secretion (ghrelin concentration in medium)” value is reported as “ghrelin secretion promoting effect” and the “significance of ghrelin secretion promoting effect” value is given as “significant”. Further, the “amount of feed intake relative to control (control normalized to 100)” value in the test with male ddY mice [7] is listed as “increased”.
